According to publication PMC4389443 (Respiratory Research, 2015):
Where two headings read alike, the source gives them in different places.

Legend:
[1] = Pharmacokinetics in Wistar rats; type: in vivo; settings: rat; for Cmax: read-out: Apparent concentration at curve maximum Cmax
Description: Studies were performed by ICP Firefly, Pharmalegacy and Sundia with local ethics approval. […] Plasma was analyzed for PXS-4728A by high-performance liquid chromatography-mass spectrometry/mass spectrometry. Basic pharmacokinetic parameters were estimated using PK Solutions software (Summit Research Services).

HepG2 cells = test: Phospholipidosis in HepG2 cells; type: cell-based; settings: highest concentration tested 100 μM

Structure (SMILES): CC(C)(C)NC(=O)c1ccc(OC/C(=C/F)CN)cc1 [PXS-4728A]
- Cmax ([1]; Wistar, plasma, intravenous 3 mg.kg^−1): 4210 ng/mL
- clearance ([1]; Wistar, plasma, intravenous 3 mg.kg^−1, read-out: Clearance CL): 23 mL/min/kg
- Cmax ([1]; Wistar, plasma, oral 6 mg.kg^−1): 720 ng/mL
- Tmax ([1]; Wistar, plasma, oral 6 mg.kg^−1, read-out: Time of maximal concentration Tmax): 49.8 min
- half-life ([1]; Wistar, plasma, iv, 3 mg/kg, intravenous 3 mg.kg^−1, read-out: Apparent half-life, t1/2 (converted)): ~60 min
- bioavailability ([1]; Wistar, plasma, oral, 6 mg.kg^−1, rat, oral 6 mg.kg^−1 / i.v. 3 mg.kg^−1): > 55%
- Clearance CL ([1]; oral 6 mg.kg^−1): 45 mL·kg/min
- Bioavailability (%) ([1]; oral 6 mg.kg^−1 / i.v. 3 mg.kg^−1): 55%
- Phospholipidosis (HepG2 cells): does not induce
